# According to patent US5789444A, “Method of reducing glutamate neurotoxicity with anthranilic acid derivatives” (Washington University, priority 1996, dated 1998):
# “Also recorded” adds a separate entry of the source.
# Columns and labels:
# [1] = tested on: NMDA-induced neurotoxicity, mouse cortical cultures; assay: NMDA-mediated excitotoxicity in mixed cortical cultures (neuronal injury by LDH release); format: cell-based
# Description: (§1) Cell Culture: Mixed cortical cultures containing both neuronal and glial elements were prepared from fetal mice at 15 day gestation as previously described (Hewett et al., 1993). Glia were plated in Primaria (Falcon) 15 mm multiwell vessels in modified Eagle's medium (MEM, Earle's salts), with 2 mM glutamine, 25 mM glucose, 10% fetal bovine serum, 10% horse serum, and 10 ng/ml epidermal growth factor. Dissociated cortical cells were plated (2.75 hemispheres/10 ml/plate) in a similar medium (with only 5% fetal bovine serum and 5% horse serum) on an established bed of glia (15-30 days in vitro). All cultures were kept at 37° C. in a humidified 5% CO2 -containing atmosphere. After 3-7 days in vitro, glial cell division was halted by 2 days of exposure to 10 μM cytosine arabinoside. Cells were subsequently shifted into maintenance medium which was identical to the plating medium, but lacked fetal bovine serum. The medium was changed twice weekly. Experiments were performed on cortical cultures after 14 days in vitro.
# Drug Exposure: Cells were exposed to NMDA for 5 min either alone or in the presence of test compound at room temperature in a HEPES controlled salt solution (HCSS), containing (mM): NaCl, 120; KCl, 5.4; MgCl2, 0.8; CaCl2, 1.8; HEPES, 20; glucose, 15, and glycine, 0.01 (pH 7.4). The exposure solution was then washed away and replaced by MEM (Earle's salts) supplemented with glycine (0.01 mM) and the cells returned to the incubator for 20-24 hr.
# Since the neurotoxicity of NMDA preparations can vary from lot to lot, the concentration of NMDA used was determined empirically in a separate benchmarking test. Cells were exposed as described above to increasing concentrations of NMDA, and neuronal injury is assessed as described below. A dose/response curve is plotted, and a concentration which induces death in 50-70% of the neuronal population after 24 hours is used as the test concentration for evaluating compounds as neuroprotective drugs.
# Assessment of Neuronal Cell Injury: Neuronal cell death was estimated by examination of cultures under phase-contrast microscopy, and quantified by measurement of lactate dehydrogenase (LDH) released by damaged or destroyed cells into the bathing medium one day following experimentation (Koh, J. Y. and Choi, D. W., 1987). The LDH signal corresponding to near-complete neuronal death was determined by assaying the supernatant of sister cultures which were exposed to 500 μM NMDA for 24 hr in MEM supplemented with 10 μM glycine. Background LDH levels (generally <15% of total neuronal) were determined in sister cultures subjected to sham wash and subtracted from the levels in experimental conditions to yield the LDH signal specific to experimental injury.
# Mouse cortical cultures were exposed for 5 min to NMDA (100 μM) alone or in the presence of increasing concentrations of meclofenamate sodium, as described under Experimental Procedures, above. Values represent the mean LDH±SEM (n=5-7) scaled to the mean LDH found in control injury (=100).
# Mouse cortical cultures were exposed, as described in Example 1, for 5 min to solutions containing increasing concentrations of NMDA or NMDA plus 300 μM meclofenamate. LDH activity was assessed 20-24 hr later. Data are expressed as the percentage of total LDH released (mean ±SEM; n=10). Total LDH was determined by assaying the supernatant of sister cultures which were incubated with 500 μM NMDA for 24 hr. An asterisk indicates difference form untreated controls as determined by repeated measures Analysis of Variance ("ANOVA") followed by Bonferroni's t-test for multiple comparisons (p<0.01).
# Cells were exposed to NMDA (100-200 μM) (as described previously) both in the presence and absence of cyclooxygenase/lipooxygenase inhibitors. Data represents the mean LDH±SEM scaled to the mean LDH found in control injury (NMDA alone=100). Data were analyzed via ANOVA followed by Dunnett's t-test for multiple comparisons.
# [2] = tested on: cyclooxygenase and lipoxygenase metabolites; assay: RIA measurements of lipid breakdown products following NMDA exposure; format: cell-based; conditions: data not shown
# NMDA receptor = assay: Whole-cell recording of NMDA current in cortical neurons; format: cell-based, mouse
# Description: Electrophysiological Recording: NMDA current was recorded at room temperature (25° C.) from DIV 12-20 cortical neurons plated on 35 mm dishes using whole-cell recording (EPC-7, List-Electronic, Germany) under voltage clamp. The data acquisition program, PULSE (HEKA Electronic, Germany), was used to control the voltage clamp, to monitor and to collect current and voltage data on a Macintosh computer (Quatra 950, Apple Computer Corp., USA). The extracellular solution contained (mM): NaCl, 145; KCl, 3; MnCl2, 2; CaCl2, 2; glycine, 0.01; HEPES, 10; TTX, 0.005 and glucose, 5. The recording electrode's internal solution contained (mM) CsCl, 150, ATP-Na, 2, BAPTA, 0.5 and HEPES, 10. All solutions were adjusted to pH 7.3 by Tris buffer. NMDA (100 μM) in the extracellular solution was delivered to the cell by a multi-channel DAD drug delivery system (Adams and List Inc., New York.) To eliminate dilution of drug, meclofenamate was added to the bath medium and NMDA was delivered in an extracellular solution containing the same concentration of drug.
# Ten min prior to NMDA (100 μM) application, mouse cortical cells were treated with 300 μM meclofenamate. NMDA current was recorded using whole cell recording techniques. To eliminate dilution of drug, NMDA was delivered to the cell in a solution containing the same concentration of drug as that in the bath.
# [3] = tested on: voltage-gated calcium channels; assay: KCl-stimulated influx of calcium (fura-2 fluorescence videomicroscopy); format: cell-based, mouse; conditions: meclofenamate 300 μM, 60 mM KCl, 5 min; FIG. 5
# Description: as §1, with “The medium was changed twice weekly. Experiments were performed on cortical cultures after 14 days in vitro.” left out
# Cytosolic Calcium Measurements: Intracellular free calcium was measured using fura-2 fluorescence videomicroscopy. […] Background fluorescence was measured from a cell free region of the coverslip at the end of each experiment and subtracted from each 340 and 380 image. […]
# Cells were exposed for 5 minutes, as in Example 1, to 60 mM KCl in the presence and absence of meclofenamate (300 μM). Intracellular free calcium [Ca^2 +]i was measured using fura-2 fluorescence videomicroscopy.
# [4] = tested on: lipoxygenase/cyclooxygenase; conditions: conclusion of prior studies; cited from earlier work
# [5] = tested on: NMDA-induced 45Ca2+ influx; assay: 45Ca2+ accumulation during NMDA exposure in cortical cultures; format: cell-based, mouse; conditions: NMDA 300 μM, 5 min, increasing concentrations, n=18, FIG. 4
# Description: ^45 Ca^2 + accumulation: Mouse cortical cultures were washed with HCSS and then exposed to NMDA (300 μM) alone or in the presence of increasing concentrations of meclofenamate in HCSS containing a trace amount of ^45 Ca^2+ (0.5 μCi/well; NEN, Boston, Mass.). After 5 min the exposure solution was washed out with four rinses of HCSS (750 μl each) and the cells were lysed by addition of 0.2% sodium dodecyl sulfate (SDS) at 37° C. An aliquot of cell lysate was estimated by β-counting.
# Mouse cortical cultures were exposed, as in Example 1, for 5 min to NMDA (300 μM) alone or NMDA plus increasing concentrations of meclofenamate in the presence of extracellular ^45 Ca^2+. Values are expressed as mean ±SEM (n=18).
# [6] = tested on: focal cerebral ischemia, Long Evans male rats; assay: Induced focal cerebral ischemia (MCAO) with reperfusion, cortical infarct volume; format: in vivo, rat
# Description: Surgical MCAO occlusion: Focal cerebral ischemia, confined to the cerebral cortex in the right middle cerebral artery territory (MCA) of Long Evans male rats (250-350 g; Charles Rivers, Wilmington, Del.), was induced by temporary ligation of the MCA and both common carotid arteries (CCAs) as described by Chen et al., 1986. The rectal temperature was monitored and maintained at 37.0°±0.5° C. via an electronic temperature controller (Versa-Therm 2156, Cole-Parmer, Chicago, Ill.) linked to a heating lamp. Physiological parameters including plasma blood glucose, arterial blood pressure, and pulse rate were monitored as described previously and maintained within normal range (Liu et al, 1989). Reperfusion was initiated by releasing arterial occlusion affecting all 3 vessels after 90 min of ischemia. Restoration of blood flow in all three arteries was observed directly under the microscope. Rats were treated i.p. with vehicle (control) or meclofenamate (10 mg/kg, i.p.) 15 min before ischemia.. The cortical infarct volume was morphometrically measured after triphenyl tetrazolium chloride stain 24 hr after MCAO.
# 31 rats underwent middle cerebral artery occlusion (MCAO) followed by reperfusion. Fourteen rats underwent MCAO alone while 17 rats were given intraperitoneal meclofenamate (10 mg/kg) 15 minutes prior to 90 min MCAO.
# lipid catabolism = conditions: known; cited from earlier work
# [7] = Mus musculus, compound 300 μM, NMDA 100-200 μM, mean LDH±SEM, asterisk = significantly different from control, read-out: LDH, % of control (NMDA alone=100)
smiles,measurement,setting,value
CCCCCCCCC#CCC#CCC#CCCCC(=O)O [ETI],"LDH, % of control (NMDA alone=100)","[1]; compound 300 μM, NMDA 100-200 μM, mean LDH±SEM, asterisk = significantly different from control",107 ± 13.0%
CCCCCC#CCC#CCC#CCC#CCCCC(=O)O [ETYA],activity at 300 µM,[1]; [7],85.1 ± 6.2%
O=c1ccc2cc(O)c(O)cc2o1 [Esculetin],activity at 300 µM,[1]; [7],117 ± 17.1%
Cc1ccc(Cl)c(Nc2ccccc2C(=O)O)c1Cl [Meclofenamate],formation of cyclooxygenase and lipoxygenase metabolites,[2],able to block formation of both cyclooxygenase and lipoxygenase metabolites
same,NMDA current,"NMDA receptor; 300 μM, 10 min prior to NMDA (100 μM), whole-cell, FIG. 3",failed to alter the current elicited by application of NMDA
same,NMDA receptor antagonism,NMDA receptor; electrophysiological and radiotracer flux measurements,not an NMDA receptor antagonist
same,elevation of intracellular calcium produced by KCl stimulation,[3],no effect on the elevation of intracellular calcium produced by KCl stimulation
same,lipoxygenase/cyclooxygenase inhibition,[4],dual lipoxygenase/cyclooxygenase inhibitor
same,NMDA-induced 45Ca2+ influx / uptake,[5],did not significantly affect uptake at any concentration tested
same,NMDA-induced 45Ca2+ influx / uptake,[5]; listed as meclofenamate,not significantly altered
same,cortical infarct volume,"[6]; 10 mg/kg i.p. 15 min prior to 90 min MCAO, 24 hr, control 144.8±8.8, p<0.002",99.2±9.2 mm^3
same,neuroprotection in animal model of cerebral ischemia,"[6]; in vivo, summary in words",neuroprotective
same,inhibition of lipid catabolism,lipid catabolism,inhibitor of lipid catabolism
same,activity at 300 µM,[1]; [7],10.8 ± 5.1%
same,neuronal injury (LDH release),"[1]; given at the same time as NMDA (100 μM, 5 min), increasing concentrations, FIG. 1",dose-dependently decreased neuronal injury
same,protective effect against NMDA receptor-mediated neurotoxicity,"[1]; in vitro, summary in words, listed as meclofenamate sodium",powerful protective effect; also recorded: neuroprotective
same,neuroprotection over a full concentration-toxicity curve for NMDA,"[1]; meclofenamate 300 μM, FIG. 2",Complete neuroprotection
CC(Cc1ccc(O)c(O)c1)C(C)Cc1ccc(O)c(O)c1 (stereo not drawn) [NDGA],activity at 30 µM,"[1]; Mus musculus, compound 30 μM, NMDA 100-200 μM, mean LDH±SEM, read-out: LDH, % of control (NMDA alone=100)",101 ± 11%
O=C1CCN(c2ccccc2)N1 [Phenidone],activity at 300 µM,[1]; [7],58.1 ± 6.7%
CC(C)Cc1ccc(C(C)C(=O)O)cc1 (stereo not drawn) [ibuprofen],activity at 100 µM,"[1]; Mus musculus, compound 100 μM, NMDA 100-200 μM, mean LDH±SEM, asterisk = significantly different from control, read-out: LDH, % of control (NMDA alone=100)",65.4 ± 3.5%
COc1ccc2cc([C@H](C)C(=O)O)ccc2c1 [naproxen],activity at 300 µM,[1]; [7],82.5 ± 7.1%
